# Key:
# [1] = system: Caco-2 cells; test: Caco-2 cell transport and efflux (permeability) study
# Description: (§1) Mannitol was used as a negative marker since it appears to be absorbed through the paracellular rather than the transcellular pathway. Cell transport, and efflux studies were conducted with Caco-2 cells grown on Snapwells between 22 to 28 days postseeding. Typically, 10 mM MES buffer (pH 6.5) with 5 mM KCl, 135 mM NaCl, 1.8 mM CaCl2, and 5 mM D-glucose was used for the AP side and 10 mM MOPS (pH 7.4) with 5 mM KCl, 132.5 mM NaCl, 1.8 mM CaCl2, and 5 mM D-glucose was used for the BL side. After washing the monolayers, drug-free media at the appropriate pH (pH 7.4 or 6.5) were first added to both compartments to allow the cells to equilibrate for approximately 15 min at 37° C. Transport studies were then conducted using 1.5 mL of transport media in the apical side and 2.5 mL in the basolateral side. The donor solution containing the probe compound was added to either the apical or basolateral compartment. Plates were placed in a shaking incubator (Boekel Scientific, Feasterville, Pa.) at 37° C. during the experiments. Transport in both apical-to-basolateral (A-to-B) and basolateral-to-apical (B-to-A) directions was measured for each drug. Aliquots were removed from the nondosing compartment at predetermined time points and replaced with fresh medium to maintain a constant volume. During studies with radiolabeled compounds, 100 uL samples were taken at each time point. The apparent permeability coefficients (Papp) were calculated using the following equation: Papp=dQ/dtX1/CoX1/A, where dQ/dt is the permeability rate, Co is the initial concentration in the donor compartment, and A is the surface area of the membrane. Flux rates (dQ/dt×1/A) were calculated by plotting the amount transported per unit area as a function of time and determining the slope of the line using linear regression.
# [2] = Vogel conflict model of anxiety; format: in vivo; conditions: 30 mg/kg, PO
# Source text: The In vivo activity of compounds of this invention can be determined in animal models of hyperalgesia (See Sluka, K., et al. 2001, “Unilateral Intramuscular Injections Of Acidic Saline Produce A Bilateral, Long-Lasting Hyperalgesia”, Muscle Nerve 24: 37-46; Dixon, W., 1980, “Efficient analysis of experimental observations”. Ann Rev Pharmacol Toxicol 20:441-462; Randall L. O. and Selitto J. J., “A Method For Measurement Of Analgesic Activity On Inflamed Tissue,” Arch. Int. Pharmacodyn, 1957;4:409-419; Hargreaves K., Dubner R., Brown F., Flores C., and Joris J. “A New And Sensitive Method For Measuring Thermal Nociception In Cutaneous Hyperalgesia”. Pain. 32:77-88, 1988.), anxiety (Vogel J. R., Beer B., and Clody D. E., “A Simple And Reliable Conflict Procedure For Testing Anti-Anxiety Agents”, Psychopharmacologia 21:1-7, 1971),
# The In vivo activity of a compound of this invention was determined in an animal model of anxiety as set forth in Vogel J R, Beer B., and Clody D E, “A Simple And Reliable Conflict Procedure For Testing Anti-Anxiety Agents”, Psychopharmacologia 21:1-7, 1971).
# [3] = in vitro; conditions: human, Caco-2
# Description: as §1
smiles,measurement,setting,value
CCCC[C@@H](C)C[C@H](CNC(=O)[C@@H](N)CC(C)C)CC(=O)O [3S-[(2S-Amino-4-methyl-pentanoylamino)-methyl]-5R-methyl-nonanoic acid],Substrate for efflux,"[1]; Caco-2, 10 uM, concluded from ratio B to A/A to B",unlikely to be a substrate for efflux
same,A to B Peff * 10^−6,"[1]; Caco-2, apical to basal, apical pH 6.5, basolateral pH 7.4, 37° C.",0.74 10^−6
same,"Caco-2 permeability, apical to basolateral direction",[1]; concentration of 10 uM,0.74 ×10⁻⁶ cm/s
CCC[C@@H](C)C[C@H](CNC(=O)[C@@H](N)CC(C)C)CC(=O)O [3S-[(2S-Amino-4-methyl-pentanoylamino)-methyl]-5R-methyl-octanoic acid],"Anxiolytic Activity, percent reference activity compared to pregabalin",[2],138.10%
OC[C@@H](O)[C@@H](O)[C@H](O)[C@H](O)CO [Mannitol],Papp A→B,[3],1.81 ×10⁻⁶ cm/s
same,Papp B→A,[3],1.41 ×10⁻⁶ cm/s
same,efflux ratio,[3],0.78
COCCc1ccc(OCC(O)CNC(C)C)cc1 (stereo not drawn) [Metoprolol],Papp A→B,[3],8.74 ×10⁻⁶ cm/s
same,Papp B→A,[3],20.3 ×10⁻⁶ cm/s

# From patent US7491835B2, “Prodrugs of amino acids with affinity for the α2δ-protein” (Pfizer Inc, priority 2003, dated 2009)
